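All cell lines were grown in 96-well plates and treated with compound for 48 hours. The concentration for 50% growth inhibition is given as GI50.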 Calls of active or inactive are those of the source. No stated cut-off is given here; in the data, active = GI50 up to about 1.1 µM and inactive = higher.
What was measured:
Experiment in all cases: growth of human tumour cells (NCI), 48 h
[1] = test system: LOX IMVI
[2] = test system: SNB-19
[3] = test system: CAKI-1
[4] = test system: MDA-N
[5] = test system: COLO 205
[6] = test system: EKVX
[7] = test system: SF-295
[8] = test system: K562
[9] = test system: SF-539
[10] = test system: ACHN
[11] = test system: HT-29
[12] = test system: HCT-15
[13] = test system: NCI/ADR-RES
[14] = test system: DU-145
[15] = test system: SNB-75
[16] = test system: SW-620
[17] = test system: HL-60
[18] = test system: KM12
[19] = test system: 786-0
[20] = test system: OVCAR-5
[21] = test system: SK-MEL-5
[22] = test system: BT-549
[23] = test system: OVCAR-8
[24] = test system: HCT-116
[25] = test system: PC-3
[26] = test system: NCI-H23
[27] = test system: SF-268
[28] = test system: NCI-H460
[29] = test system: RXF 393
[30] = test system: UACC-257
[31] = test system: NCI-H522
[32] = test system: OVCAR-3
[33] = test system: MDA-MB-435
[34] = test system: MOLT-4
[35] = test system: U-251
[36] = test system: SN12C
[37] = test system: SK-MEL-28
[38] = test system: UO-31
[39] = test system: M14
[40] = test system: TK-10
[41] = test system: MCF7
[42] = test system: A498
[43] = test system: SK-OV-3
[44] = test system: HCC 2998
[45] = test system: CCRF-CEM
[46] = test system: NCI-H226
[47] = test system: HOP-62
[48] = test system: MDA-MB-231
[49] = test system: Malme-3M
[50] = test system: Hs-578T
[51] = test system: T47D
[52] = test system: IGROV-1
[53] = test system: UACC-62
[54] = test system: OVCAR-4
[55] = test system: A549
[56] = test system: RPMI-8226
[57] = test system: SK-MEL-2
[58] = test system: HOP-92

Cc1nc(C)c(Cc2ccccc2)o1
GI50 [1]: > 100 µM (inactive) | GI50 [2]: > 100 µM (inactive) | GI50 [3]: > 100 µM (inactive) | GI50 [4]: > 100 µM (inactive) | GI50 [5]: > 100 µM (inactive) | GI50 [6]: > 100 µM (inactive) | GI50 [7]: > 100 µM (inactive) | GI50 [8]: > 100 µM (inactive) | GI50 [9]: > 100 µM (inactive) | GI50 [10]: > 100 µM (inactive) | GI50 [11]: > 100 µM (inactive) | GI50 [12]: > 100 µM | GI50 [13]: > 100 µM (inactive) | GI50 [14]: > 100 µM (inactive) | GI50 [15]: 41.4 µM (inactive) | GI50 [16]: > 100 µM (inactive) | GI50 [17]: > 100 µM (inactive) | GI50 [18]: > 100 µM (inactive) | GI50 [19]: > 100 µM (inactive) | GI50 [20]: > 100 µM (inactive) | GI50 [21]: > 100 µM (inactive) | GI50 [22]: > 100 µM (inactive) | GI50 [23]: > 100 µM (inactive) | GI50 [24]: > 100 µM (inactive) | GI50 [25]: > 100 µM (inactive) | GI50 [26]: > 100 µM (inactive) | GI50 [27]: > 100 µM (inactive) | GI50 [28]: > 100 µM (inactive) | GI50 [29]: > 100 µM (inactive) | GI50 [30]: > 100 µM (inactive) | GI50 [31]: > 100 µM (inactive) | GI50 [32]: 98.2 µM (inactive) | GI50 [33]: > 100 µM (inactive) | GI50 [34]: > 100 µM (inactive) | GI50 [35]: > 100 µM (inactive) | GI50 [36]: > 100 µM (inactive) | GI50 [37]: > 100 µM (inactive) | GI50 [38]: 47.6 µM (inactive) | GI50 [39]: > 100 µM (inactive) | GI50 [40]: > 100 µM (inactive) | GI50 [41]: > 100 µM (inactive) | GI50 [42]: > 100 µM (inactive) | GI50 [43]: > 100 µM (inactive) | GI50 [44]: > 100 µM (inactive) | GI50 [45]: > 100 µM (inactive) | GI50 [46]: > 100 µM (inactive) | GI50 [47]: > 100 µM (inactive) | GI50 [48]: > 100 µM (inactive) | GI50 [49]: > 100 µM (inactive) | GI50 [50]: > 100 µM (inactive) | GI50 [51]: > 100 µM (inactive) | GI50 [52]: > 100 µM (inactive) | GI50 [53]: > 100 µM (inactive) | GI50 [54]: > 100 µM (inactive) | GI50 [55]: > 100 µM (inactive)

O=C(O)CNc1ccc(C(=O)O)cc1
GI50 [1]: > 100 µM (inactive) | GI50 [2]: > 100 µM (inactive) | GI50 [3]: > 100 µM (inactive) | GI50 [4]: > 100 µM (inactive) | GI50 [56]: > 100 µM (inactive) | GI50 [57]: > 100 µM (inactive) | GI50 [5]: > 100 µM (inactive) | GI50 [6]: > 100 µM (inactive) | GI50 [7]: > 100 µM (inactive) | GI50 [8]: > 100 µM (inactive) | GI50 [9]: > 100 µM (inactive) | GI50 [10]: > 100 µM (inactive) | GI50 [11]: > 100 µM (inactive) | GI50 [58]: > 100 µM (inactive) | GI50 [12]: > 100 µM | GI50 [13]: > 100 µM (inactive) | GI50 [14]: > 100 µM (inactive) | GI50 [15]: > 100 µM (inactive) | GI50 [16]: > 100 µM (inactive) | GI50 [17]: 2.85 µM (inactive) | GI50 [18]: > 100 µM (inactive) | GI50 [19]: > 100 µM (inactive) | GI50 [20]: > 100 µM (inactive) | GI50 [21]: > 100 µM (inactive) | GI50 [22]: > 100 µM (inactive) | GI50 [23]: > 100 µM (inactive) | GI50 [24]: > 100 µM (inactive) | GI50 [25]: > 100 µM (inactive) | GI50 [26]: > 100 µM (inactive) | GI50 [27]: > 100 µM (inactive) | GI50 [28]: > 100 µM (inactive) | GI50 [29]: > 100 µM (inactive) | GI50 [30]: > 100 µM (inactive) | GI50 [31]: > 100 µM (inactive) | GI50 [32]: > 100 µM (inactive) | GI50 [33]: > 100 µM (inactive) | GI50 [34]: > 100 µM (inactive) | GI50 [35]: > 100 µM (inactive) | GI50 [36]: > 100 µM (inactive) | GI50 [37]: > 100 µM (inactive) | GI50 [38]: > 100 µM (inactive) | GI50 [39]: > 100 µM (inactive) | GI50 [40]: > 100 µM (inactive) | GI50 [41]: > 100 µM (inactive) | GI50 [42]: > 100 µM (inactive) | GI50 [43]: > 100 µM (inactive) | GI50 [45]: > 100 µM (inactive) | GI50 [46]: > 100 µM (inactive) | GI50 [47]: > 100 µM (inactive) | GI50 [48]: > 100 µM (inactive) | GI50 [49]: > 100 µM (inactive) | GI50 [50]: > 100 µM (inactive) | GI50 [51]: > 100 µM (inactive) | GI50 [52]: > 100 µM (inactive) | GI50 [53]: > 100 µM (inactive) | GI50 [54]: > 100 µM (inactive) | GI50 [55]: > 100 µM (inactive)

O=C(O)CCC(=O)OC1N=C(c2ccccc2Cl)c2cc([N+](=O)[O-])ccc2NC1=O (stereo not drawn)
GI50 [1]: 85.7 µM (inactive) | GI50 [2]: > 100 µM (inactive) | GI50 [3]: > 100 µM (inactive) | GI50 [4]: > 100 µM (inactive) | GI50 [57]: > 100 µM (inactive) | GI50 [6]: > 100 µM (inactive) | GI50 [7]: > 100 µM (inactive) | GI50 [10]: 57.8 µM (inactive) | GI50 [11]: > 100 µM (inactive) | GI50 [58]: 69.2 µM (inactive) | GI50 [12]: 36.7 µM | GI50 [13]: > 100 µM (inactive) | GI50 [14]: > 100 µM (inactive) | GI50 [15]: 38.1 µM (inactive) | GI50 [16]: 26.1 µM (inactive) | GI50 [17]: 38.5 µM (inactive) | GI50 [18]: 40.7 µM (inactive) | GI50 [19]: 42.1 µM (inactive) | GI50 [20]: > 100 µM (inactive) | GI50 [22]: 89.1 µM (inactive) | GI50 [23]: 39 µM (inactive) | GI50 [24]: 20.5 µM (inactive) | GI50 [25]: 23.6 µM (inactive) | GI50 [26]: > 100 µM (inactive) | GI50 [27]: 67.5 µM (inactive) | GI50 [28]: > 100 µM (inactive) | GI50 [29]: 47.3 µM (inactive) | GI50 [30]: > 100 µM (inactive) | GI50 [31]: 55.1 µM (inactive) | GI50 [32]: 32.7 µM (inactive) | GI50 [33]: > 100 µM (inactive) | GI50 [35]: 31.5 µM (inactive) | GI50 [36]: 46.5 µM (inactive) | GI50 [37]: 60.1 µM (inactive) | GI50 [38]: 44.6 µM (inactive) | GI50 [39]: > 100 µM (inactive) | GI50 [40]: 86.7 µM (inactive) | GI50 [41]: 33 µM (inactive) | GI50 [42]: > 100 µM (inactive) | GI50 [43]: > 100 µM (inactive) | GI50 [44]: > 100 µM (inactive) | GI50 [45]: 26.3 µM (inactive) | GI50 [47]: 70.6 µM (inactive) | GI50 [48]: > 100 µM (inactive) | GI50 [49]: > 100 µM (inactive) | GI50 [50]: > 100 µM (inactive) | GI50 [51]: 81.3 µM (inactive) | GI50 [52]: 95.9 µM (inactive) | GI50 [53]: > 100 µM (inactive) | GI50 [54]: 42.2 µM (inactive) | GI50 [55]: > 100 µM (inactive)

From ChEMBL document CHEMBL1201862, “PubChem BioAssay data set” (2004)
